Source: paper PMC12090182, “Repurposing of the RIPK1-Selective Benzo[1,4]oxazepin-4-one Scaffold for the Development of a Type III LIMK1/2 Inhibitor” (ACS Chemical Biology, 2025)

Test system: MRC-9 cells
Test: Multiplex high-content viability assessment
Assay type: cell-based
Settings: for Cell count normalized to cells treated with DMSO control / Cell count per well / Population Fragmented Nuclei (%) / Population Healthy Nuclei (%) / Population Pyknosed Nuclei (%) / Population apoptotic cell (%) / Population cell that influence microtubule strucutre (%) / Population with increased mitochondrial mass (%) / Population with membrane disruption (%): human fibroblast
In short: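 HEK293T and U2OS cells (DMEM) and MRC-9 fibroblasts (EMEM) exposed to compounds at 1 and 10 μM. Live-cell confocal imaging of cell shape and fluorescence before and at 12, 24 and 48 h. Normalized to 0.1% DMSO; biological duplicates with SEM.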

**Q.** Which results are given for `CN1C(=O)[C@@H](N2CCc3c(C(N)=O)nn(Cc4ccccc4)c3C2=O)COc2ccccc21` [Compound 11]?
**A.** Cell count normalized to cells treated with DMSO control (1 µM, 0 h, replicate 1): 1.108; Cell count per well (1 µM, 0 h, replicate 1): 166; Population Fragmented Nuclei (%) (1 µM, 0 h, replicate 1): 16.15%; Population Healthy Nuclei (%) (1 µM, 0 h, replicate 1): 68.94%; Population Pyknosed Nuclei (%) (1 µM, 0 h, replicate 1): 14.91%; Population apoptotic cell (%) (1 µM, 0 h, replicate 1): 29.17%; Population cell that influence microtubule strucutre (%) (1 µM, 0 h, replicate 1): 21.62%; Population with increased mitochondrial mass (%) (1 µM, 0 h, replicate 1): 7.21%; Population with membrane disruption (%) (1 µM, 0 h, replicate 1): 0.00%; Cell count normalized to cells treated with DMSO control (1 µM, 0 h, replicate 2): 0.9027; Cell count per well (1 µM, 0 h, replicate 2): 161; Population Fragmented Nuclei (%) (1 µM, 0 h, replicate 2): 20.65%; Population Healthy Nuclei (%) (1 µM, 0 h, replicate 2): 50.97%; Population Pyknosed Nuclei (%) (1 µM, 0 h, replicate 2): 28.39%; Population apoptotic cell (%) (1 µM, 0 h, replicate 2): 29.55%; Population cell that influence microtubule strucutre (%) (1 µM, 0 h, replicate 2): 43.04%; Population with increased mitochondrial mass (%) (1 µM, 0 h, replicate 2): 7.59%; Population with membrane disruption (%) (1 µM, 0 h, replicate 2): 5.06%; Cell count normalized to cells treated with DMSO control (1 µM, 12 h, replicate 1): 1.109; Cell count per well (1 µM, 12 h, replicate 1): 167; Population Fragmented Nuclei (%) (1 µM, 12 h, replicate 1): 8.64%; Population Healthy Nuclei (%) (1 µM, 12 h, replicate 1): 75.31%; Population Pyknosed Nuclei (%) (1 µM, 12 h, replicate 1): 16.05%; Population apoptotic cell (%) (1 µM, 12 h, replicate 1): 34.62%; Population cell that influence microtubule strucutre (%) (1 µM, 12 h, replicate 1): 20.49%; Population with increased mitochondrial mass (%) (1 µM, 12 h, replicate 1): 3.28%; Population with membrane disruption (%) (1 µM, 12 h, replicate 1): 0.82%; Cell count normalized to cells treated with DMSO control (1 µM, 12 h, replicate 2): 0.8825; Cell count per well (1 µM, 12 h, replicate 2): 147; Population Fragmented Nuclei (%) (1 µM, 12 h, replicate 2): 22.70%; Population Healthy Nuclei (%) (1 µM, 12 h, replicate 2): 46.81%; Population Pyknosed Nuclei (%) (1 µM, 12 h, replicate 2): 30.50%; Population apoptotic cell (%) (1 µM, 12 h, replicate 2): 34.88%; Population cell that influence microtubule strucutre (%) (1 µM, 12 h, replicate 2): 56.06%; Population with increased mitochondrial mass (%) (1 µM, 12 h, replicate 2): 10.61%; Population with membrane disruption (%) (1 µM, 12 h, replicate 2): 4.55%; Cell count normalized to cells treated with DMSO control (1 µM, 24 h, replicate 1): 1.1208; Cell count per well (1 µM, 24 h, replicate 1): 169; Population Fragmented Nuclei (%) (1 µM, 24 h, replicate 1): 16.36%; Population Healthy Nuclei (%) (1 µM, 24 h, replicate 1): 70.30%; Population Pyknosed Nuclei (%) (1 µM, 24 h, replicate 1): 13.33%; Population apoptotic cell (%) (1 µM, 24 h, replicate 1): 45.45%; Population cell that influence microtubule strucutre (%) (1 µM, 24 h, replicate 1): 18.10%; Population with increased mitochondrial mass (%) (1 µM, 24 h, replicate 1): 3.45%; Population with membrane disruption (%) (1 µM, 24 h, replicate 1): 1.72%; Cell count normalized to cells treated with DMSO control (1 µM, 24 h, replicate 2): 0.8977; Cell count per well (1 µM, 24 h, replicate 2): 148; Population Fragmented Nuclei (%) (1 µM, 24 h, replicate 2): 25.34%; Population Healthy Nuclei (%) (1 µM, 24 h, replicate 2): 47.26%; Population Pyknosed Nuclei (%) (1 µM, 24 h, replicate 2): 27.40%; Population apoptotic cell (%) (1 µM, 24 h, replicate 2): 50.00%; Population cell that influence microtubule strucutre (%) (1 µM, 24 h, replicate 2): 57.97%; Population with increased mitochondrial mass (%) (1 µM, 24 h, replicate 2): 11.59%; Population with membrane disruption (%) (1 µM, 24 h, replicate 2): 5.80%; Cell count normalized to cells treated with DMSO control (1 µM, 48 h, replicate 1): 1.035; Cell count per well (1 µM, 48 h, replicate 1): 157; Population Fragmented Nuclei (%) (1 µM, 48 h, replicate 1): 12.50%; Population Healthy Nuclei (%) (1 µM, 48 h, replicate 1): 75.00%; Population Pyknosed Nuclei (%) (1 µM, 48 h, replicate 1): 12.50%; Population apoptotic cell (%) (1 µM, 48 h, replicate 1): 68.42%; Population cell that influence microtubule strucutre (%) (1 µM, 48 h, replicate 1): 16.67%; Population with increased mitochondrial mass (%) (1 µM, 48 h, replicate 1): 3.51%; Population with membrane disruption (%) (1 µM, 48 h, replicate 1): 0.88%; Cell count normalized to cells treated with DMSO control (1 µM, 48 h, replicate 2): 0.8596; Cell count per well (1 µM, 48 h, replicate 2): 140; Population Fragmented Nuclei (%) (1 µM, 48 h, replicate 2): 27.61%; Population Healthy Nuclei (%) (1 µM, 48 h, replicate 2): 55.22%; Population Pyknosed Nuclei (%) (1 µM, 48 h, replicate 2): 17.16%; Population apoptotic cell (%) (1 µM, 48 h, replicate 2): 39.13%; Population cell that influence microtubule strucutre (%) (1 µM, 48 h, replicate 2): 47.30%; Population with increased mitochondrial mass (%) (1 µM, 48 h, replicate 2): 9.46%; Population with membrane disruption (%) (1 µM, 48 h, replicate 2): 2.70%; cytotoxicity (1 μM, MRC-9): no cytotoxicity; Cell count normalized to cells treated with DMSO control (10 µM, 0 h, replicate 1): 0.9342; Cell count per well (10 µM, 0 h, replicate 1): 140; Population Fragmented Nuclei (%) (10 µM, 0 h, replicate 1): 19.23%; Population Healthy Nuclei (%) (10 µM, 0 h, replicate 1): 57.69%; Population Pyknosed Nuclei (%) (10 µM, 0 h, replicate 1): 23.08%; Population apoptotic cell (%) (10 µM, 0 h, replicate 1): 33.33%; Population cell that influence microtubule strucutre (%) (10 µM, 0 h, replicate 1): 24.00%; Population with increased mitochondrial mass (%) (10 µM, 0 h, replicate 1): 6.67%; Population with membrane disruption (%) (10 µM, 0 h, replicate 1): 1.33%; Cell count normalized to cells treated with DMSO control (10 µM, 0 h, replicate 2): 0.8634; Cell count per well (10 µM, 0 h, replicate 2): 154; Population Fragmented Nuclei (%) (10 µM, 0 h, replicate 2): 23.88%; Population Healthy Nuclei (%) (10 µM, 0 h, replicate 2): 43.28%; Population Pyknosed Nuclei (%) (10 µM, 0 h, replicate 2): 32.84%; Population apoptotic cell (%) (10 µM, 0 h, replicate 2): 40.91%; Population cell that influence microtubule strucutre (%) (10 µM, 0 h, replicate 2): 39.66%; Population with increased mitochondrial mass (%) (10 µM, 0 h, replicate 2): 15.52%; Population with membrane disruption (%) (10 µM, 0 h, replicate 2): 8.62%; Cell count normalized to cells treated with DMSO control (10 µM, 12 h, replicate 1): 0.8966; Cell count per well (10 µM, 12 h, replicate 1): 135; Population Fragmented Nuclei (%) (10 µM, 12 h, replicate 1): 18.46%; Population Healthy Nuclei (%) (10 µM, 12 h, replicate 1): 53.08%; Population Pyknosed Nuclei (%) (10 µM, 12 h, replicate 1): 28.46%; Population apoptotic cell (%) (10 µM, 12 h, replicate 1): 67.57%; Population cell that influence microtubule strucutre (%) (10 µM, 12 h, replicate 1): 69.57%; Population with increased mitochondrial mass (%) (10 µM, 12 h, replicate 1): 15.94%; Population with membrane disruption (%) (10 µM, 12 h, replicate 1): 1.45%; Cell count normalized to cells treated with DMSO control (10 µM, 12 h, replicate 2): 0.8165; Cell count per well (10 µM, 12 h, replicate 2): 136; Population Fragmented Nuclei (%) (10 µM, 12 h, replicate 2): 28.57%; Population Healthy Nuclei (%) (10 µM, 12 h, replicate 2): 55.46%; Population Pyknosed Nuclei (%) (10 µM, 12 h, replicate 2): 15.97%; Population apoptotic cell (%) (10 µM, 12 h, replicate 2): 47.37%; Population cell that influence microtubule strucutre (%) (10 µM, 12 h, replicate 2): 83.33%; Population with increased mitochondrial mass (%) (10 µM, 12 h, replicate 2): 30.30%; Population with membrane disruption (%) (10 µM, 12 h, replicate 2): 7.58%; Cell count normalized to cells treated with DMSO control (10 µM, 24 h, replicate 1): 0.8754; Cell count per well (10 µM, 24 h, replicate 1): 132; Population Fragmented Nuclei (%) (10 µM, 24 h, replicate 1): 17.21%; Population Healthy Nuclei (%) (10 µM, 24 h, replicate 1): 55.74%; Population Pyknosed Nuclei (%) (10 µM, 24 h, replicate 1): 27.05%; Population apoptotic cell (%) (10 µM, 24 h, replicate 1): 60.61%; Population cell that influence microtubule strucutre (%) (10 µM, 24 h, replicate 1): 72.06%; Population with increased mitochondrial mass (%) (10 µM, 24 h, replicate 1): 17.65%; Population with membrane disruption (%) (10 µM, 24 h, replicate 1): 1.47%; Cell count normalized to cells treated with DMSO control (10 µM, 24 h, replicate 2): 0.8068; Cell count per well (10 µM, 24 h, replicate 2): 133; Population Fragmented Nuclei (%) (10 µM, 24 h, replicate 2): 30.89%; Population Healthy Nuclei (%) (10 µM, 24 h, replicate 2): 56.10%; Population Pyknosed Nuclei (%) (10 µM, 24 h, replicate 2): 13.01%; Population apoptotic cell (%) (10 µM, 24 h, replicate 2): 56.25%; Population cell that influence microtubule strucutre (%) (10 µM, 24 h, replicate 2): 65.22%; Population with increased mitochondrial mass (%) (10 µM, 24 h, replicate 2): 20.29%; Population with membrane disruption (%) (10 µM, 24 h, replicate 2): 5.80%; Cell count normalized to cells treated with DMSO control (10 µM, 48 h, replicate 1): 0.8898; Cell count per well (10 µM, 48 h, replicate 1): 135; Population Fragmented Nuclei (%) (10 µM, 48 h, replicate 1): 23.81%; Population Healthy Nuclei (%) (10 µM, 48 h, replicate 1): 54.76%; Population Pyknosed Nuclei (%) (10 µM, 48 h, replicate 1): 21.43%; Population apoptotic cell (%) (10 µM, 48 h, replicate 1): 85.19%; Population cell that influence microtubule strucutre (%) (10 µM, 48 h, replicate 1): 56.52%; Population with increased mitochondrial mass (%) (10 µM, 48 h, replicate 1): 14.49%; Population with membrane disruption (%) (10 µM, 48 h, replicate 1): 0.00%; Cell count normalized to cells treated with DMSO control (10 µM, 48 h, replicate 2): 0.8904; Cell count per well (10 µM, 48 h, replicate 2): 145; Population Fragmented Nuclei (%) (10 µM, 48 h, replicate 2): 38.30%; Population Healthy Nuclei (%) (10 µM, 48 h, replicate 2): 58.16%; Population Pyknosed Nuclei (%) (10 µM, 48 h, replicate 2): 3.55%; Population apoptotic cell (%) (10 µM, 48 h, replicate 2): 60.00%; Population cell that influence microtubule strucutre (%) (10 µM, 48 h, replicate 2): 71.95%; Population with increased mitochondrial mass (%) (10 µM, 48 h, replicate 2): 18.29%; Population with membrane disruption (%) (10 µM, 48 h, replicate 2): 3.66%
